Data published in ChEMBL document CHEMBL1201862, “PubChem BioAssay data set” (2004).
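Tested at 5 concentrations; 48 h exposure; 96-well plates; endpoints linearly interpolated, else capped at highest concentration. Abbreviation: GI50, concentration required for 50% inhibition of growth.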 Activity calls are given as the source filed them. Rule as the data show it: active = GI50 up to about 1.1 µM and inactive = higher.

How the values were obtained:
Test in all cases: growth of human tumour cells (NCI), 48 h
A549 = tested on: A549
ACHN = tested on: ACHN
CAKI-1 = tested on: CAKI-1
DU-145 = tested on: DU-145
HL-60 = tested on: HL-60
HOP-62 = tested on: HOP-62
HT-29 = tested on: HT-29
LOX IMVI = tested on: LOX IMVI
M14 = tested on: M14
NCI-H23 = tested on: NCI-H23
NCI/ADR-RES = tested on: NCI/ADR-RES
OVCAR-8 = tested on: OVCAR-8
SF-295 = tested on: SF-295
SK-MEL-28 = tested on: SK-MEL-28
SK-OV-3 = tested on: SK-OV-3
SNB-19 = tested on: SNB-19
SNB-75 = tested on: SNB-75
SR = tested on: SR
SW-620 = tested on: SW-620
U-251 = tested on: U-251

| Structure (SMILES) | GI50 (A549) | GI50 (ACHN) | GI50 (CAKI-1) | GI50 (DU-145) | GI50 (HL-60) | GI50 (HOP-62) | GI50 (HT-29) | GI50 (LOX IMVI) | GI50 (M14) | GI50 (NCI-H23) | GI50 (NCI/ADR-RES) | GI50 (OVCAR-8) | GI50 (SF-295) | GI50 (SK-MEL-28) | GI50 (SK-OV-3) | GI50 (SNB-19) | GI50 (SNB-75) | GI50 (SR) | GI50 (SW-620) | GI50 (U-251) |
| --- | --- | --- | --- | --- | --- | --- | --- | --- | --- | --- | --- | --- | --- | --- | --- | --- | --- | --- | --- | --- |
| COC(=O)C(Cc1ccccc1)NC(=O)CCCNC(=O)OCc1ccccc1 (stereo not given) | > 100 µM (inactive) | 33 µM (inactive) | > 100 µM (inactive) | > 100 µM (inactive) | 33.7 µM (inactive) | > 100 µM (inactive) | > 100 µM (inactive) | > 100 µM (inactive) | 17.1 µM (inactive) | > 100 µM (inactive) | > 100 µM (inactive) | > 100 µM (inactive) | > 100 µM (inactive) | 48.2 µM (inactive) | > 100 µM (inactive) | > 100 µM (inactive) | > 100 µM (inactive) | 44.7 µM (inactive) | > 100 µM (inactive) | > 100 µM (inactive) |
| COc1ccc2nc3ccccc3c(NCCCCN(C)CCCl)c2c1 | 0.0286 µM (active) | < 0.0174 µM (active) | 0.0284 µM (active) | 0.0537 µM (active) | 0.0188 µM (active) | 0.082 µM (active) | 0.0178 µM (active) | 0.0335 µM (active) | 0.0711 µM (active) | 0.0513 µM (active) | 0.0611 µM (active) | 0.0254 µM (active) | 0.0652 µM (active) | 0.367 µM (active) | 0.0775 µM (active) | 0.191 µM (active) | 0.122 µM (active) | < 0.01 µM (active) | 0.0151 µM (active) | 0.0344 µM (active) |
| CC(C)(C)C1=CC(=C(c2ccc(-c3c4nc(c(-c5ccc(C(=C6C=C(C(C)(C)C)C(=O)C(C(C)(C)C)=C6)c6cc(C(C)(C)C)c(O)c(C(C)(C)C)c6)cc5)c5ccc([nH]5)c(-c5ccc(C(=C6C=C(C(C)(C)C)C(=O)C(C(C)(C)C)=C6)c6cc(C(C)(C)C)c(O)c(C(C)(C)C)c6)cc5)c5nc(c(-c6ccc(C(=C7C=C(C(C)(C)C)C(=O)C(C(C)(C)C)=C7)c7cc(C(C)(C)C)c(O)c(C(C)(C)C)c7)cc6)c6ccc3[nH]6)C=C5)C=C4)cc2)c2cc(C(C)(C)C)c(O)c(C(C)(C)C)c2)C=C(C(C)(C)C)C1=O | > 100 µM (inactive) | > 100 µM (inactive) | > 100 µM (inactive) | > 100 µM (inactive) | > 100 µM (inactive) | > 100 µM (inactive) | > 100 µM (inactive) | > 100 µM (inactive) | > 100 µM (inactive) | > 100 µM (inactive) | > 100 µM (inactive) | > 100 µM (inactive) | > 100 µM (inactive) | > 100 µM (inactive) | > 100 µM (inactive) | > 100 µM (inactive) | > 100 µM (inactive) | > 100 µM (inactive) | > 100 µM (inactive) | > 100 µM (inactive) |
| COc1cc2c(c(OC)c1OC)-c1ccc(SC)c(=O)cc1[C@@H](NC(=O)C(F)(F)F)CC2 | < 0.01 µM (active) | < 0.01 µM (active) | < 0.0139 µM (active) | < 0.01 µM (active) | < 0.01 µM (active) | < 0.0103 µM (active) | < 0.01 µM (active) | < 0.01 µM (active) | < 0.01 µM (active) | < 0.01 µM (active) | 0.0261 µM (active) | < 0.01 µM (active) | < 0.01 µM (active) | 0.766 µM (active) | 0.13 µM (active) | < 0.01 µM (active) | 0.019 µM (active) | < 0.01 µM (active) | < 0.01 µM (active) | < 0.01 µM (active) |
| CSc1ncc2c(C#N)c3sc4ccccc4n3c(=O)c2n1 | 78.3 µM (inactive) | > 100 µM (inactive) | 73.8 µM (inactive) | > 100 µM (inactive) | > 100 µM (inactive) | 30.4 µM (inactive) | > 100 µM (inactive) | > 100 µM (inactive) | > 100 µM (inactive) | > 100 µM (inactive) | 38.8 µM (inactive) | 26.1 µM (inactive) | > 100 µM (inactive) | > 100 µM (inactive) | 80.7 µM (inactive) | 37.8 µM (inactive) | 43.5 µM (inactive) | 19.6 µM (inactive) | 22 µM (inactive) | 24 µM (inactive) |
